The test system of one experiment is rats. The experiment in a line: Acute arrhythmia induced by calcium chloride, lethality. Format: in vivo, Wistar rats. The conditions noted are these: deaths/rats per group (8 rats), p.o. 14 days (Meldonium dihydrate 120 mg/kg, Meldonium orotate 204 mg/kg), last dose 24 h before, CaCl2 185 mg/kg, ECG until 10 minutes after. The procedure: Experiment was conducted on adult male Wistar rats. During the experiment, the animals were kept in Standard crates in groups of 8. The feed was a standardized diet R3 (LABFOR, Lactamin AB, Sweden). The room temperature was kept at 21-23°C, relative humidity at 65±10%, 12 hour light/darkness cycle. The experimental procedures were carried out in accordance with the guidelines of the European Community and local laws and policies and were approved by Latvian Animal Protection Ethical Committee, the Food and Veterinary Service.
An experimental acute arrhythmia was caused by introducing in rats solution of Calcium chloride.
Rats weighing 240-250 g randomized were divided into 3 groups, where in all groups there were 8 rats. During all 14 days rats got experimental preparations: Meldonium dihydrate or Meldonium orotate. The first group of 8 rats received drinking water (control group), the second group of 8 rats received Meldonium dihydrate (120 mg/kg p.o.) and the third group of 8 rats received Meldonium orotate (204 mg/kg p.o.). The last dose of experimental preparations animals got 24 h before the experiment. […] When narcosis started to influence to rat, there was cannulated left femoral vena for introducing of 10 % CaCl2 and after that there was connected ECG's recoding device (ADlnstrument PowerLab systems) and read ECG from the II lead. […]

The subject of the next experiment is isolated rat heart. The experiment in a line: Isolated rat heart infarction model. Format: in vivo, Wistar rats. To be noted: by mouth for 14 days (Meldonium dihydrate 120 mg/kg, orotic acid 100mg/kg, Meldonium orotate 200 mg/kg), 60 minutes occlusion, 150 minute reperfusion. As for the experimental part: Experiments were conducted on adult male Wistar rats with initial weight of 280-310g. During the experiment, the animals were kept in Standard crates in groups of 8. The feed was a standardized diet R70 (LABFOR, Lactamin AB, Sweden). The room temperature was kept at 21-23°C, relative humidity at 65±10%, 12 hour light/darkness cycle.
Rats weighing approximately 300 g were randomly divided in 4 groups. The first group received saline by mouth (control group), the second group 120 mg/kg Meldonium dihydrate, the third orotic acid 100mg/kg and the fourth group 200 mg/kg Meldonium orotate by mouth for 14 days.
Rats were anesthetized with sodium pentobarbital (60 mg/kg) and heparin (1 IU/g) was administrated concomitantly. Hearts were excised and retrogradely perfused via aorta at a constant pressure of 50 mm Hg, with oxygenated Krebs-Henseleit buffer ( content in mmol/L: NaCl 118, Ca Cl2 2.52, MgCl2 1.64, NaHCO3 24.88, KH2PO4 1.18, glucose 10.0, EDTA 0.05) pH 7.3-7.5 at 37°C.
A 5-0 polypropylene suture (Surgipro II, Syneture) was passed under the left anterior descending coronary artery and threaded through a small plastic tube to permit reversible occlusion of the coronart artery. Coronary flow was measured using an ultrasound flow detector (HSE) and PowerLab 8/30 system from ADlnstruments.
Hearts were adapted for 20 minutes and occlusion was performed for 60 minutes by constricting threads through a plastic tube.
At the end of the 150 minute reperfusion, the left anterior descending coronary artery was relegated and the risk zone was delineated with 0.1 % methylene blue solution in Krebs-Henseleit buffer infused via the aorta root. Hearts were sectioned transversely from the apex to the base of 2 mm thickness and incubated in 1 % triphenyl-tetrazolium chloride in phosphate buffer (pH 7.4, 37°C) for 10 minutes to stain viable tissue red and necrotic tissue white. […] Computerized planemetric analysis of photographs was performed using Image-Pro Plus 4.5.1 software to determine the area at risk (AR) and area of necrosis (AN) expressed as percentage of the left ventricle (LV). […]

“And” between values parts separate entries of the source, which are not always exact repeats. Identical values can stand only once. Marks after values point to notes of the source that are not given here.

Experimental findings from patent publication EP2070529B1, “Medical use of 3-(2,2,2-trimethylhydrazinium) propionate orotate” (Grindeks, a joint stock company, priority 2007, dated 2009) are described below.

As to `C[N+](C)(C)NCCC(=O)[O-]` [Meldonium dihydrate, 3-(2,2,2-Trimethylhydrazinium) propionate dihydrate], in the experiment on rats (dihydrate), the Fatal outcome is reported as 2/8. The “Infarct size, % of control” value in the experiment with isolated rat heart (IS = AN/AR x 100, dihydrate) is 76.9±5.9 % of control.
In the case of `C[N+](C)(C)NCCC(=O)[O-]` [Meldonium orotate, 3-(2,2,2-trimethylhydrazinium) propionate orotate], in the experiment with rats, the Fatal outcome was “no lethal cases and 0/8”. Moreover, the “Infarct size, % of control” value with isolated rat heart (IS = AN/AR x 100) is given as 49.1±6.1***^,#,& % of control.
Take `O=C(O)c1cc(=O)[nH]c(=O)[nH]1` [Orotic acid]: the “Infarct size, % of control” value in the experiment on isolated rat heart (IS = AN/AR x 100) is reported as 75.0±7.7 % of control.
